# Assays:
# Cholinesterase = Cholinesterase (Homo sapiens, UniProt P06276)
# Description: Inhibition of human recombinant BChE
# Acetylcholinesterase = Acetylcholinesterase (Homo sapiens, UniProt P22303)
# Description: Inhibition of human recombinant AChE
# [1] = biological target: T1, Muscarinic acetylcholine receptor M2 (Homo sapiens) (UniProt P08172); settings: Cavia porcellus; Cardiac atrium
# T1 sequence (whole entry): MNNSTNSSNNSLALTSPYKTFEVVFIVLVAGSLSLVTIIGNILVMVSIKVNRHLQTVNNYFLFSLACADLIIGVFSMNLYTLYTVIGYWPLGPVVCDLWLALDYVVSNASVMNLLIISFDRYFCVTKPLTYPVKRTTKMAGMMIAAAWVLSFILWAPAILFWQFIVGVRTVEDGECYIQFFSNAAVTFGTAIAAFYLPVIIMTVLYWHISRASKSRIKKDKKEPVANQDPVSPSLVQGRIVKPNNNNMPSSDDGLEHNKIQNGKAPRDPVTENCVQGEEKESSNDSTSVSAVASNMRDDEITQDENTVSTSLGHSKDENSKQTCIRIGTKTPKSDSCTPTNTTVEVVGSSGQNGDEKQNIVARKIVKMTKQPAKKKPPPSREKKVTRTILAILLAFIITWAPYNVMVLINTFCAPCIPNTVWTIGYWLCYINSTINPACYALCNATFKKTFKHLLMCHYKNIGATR
# Description: Antagonist activity at muscarinic M2 receptor assessed as contraction of electrically stimulated guinea pig left atrium at 10 uM
# Chain of Cholinesterase (P06276 whole entry): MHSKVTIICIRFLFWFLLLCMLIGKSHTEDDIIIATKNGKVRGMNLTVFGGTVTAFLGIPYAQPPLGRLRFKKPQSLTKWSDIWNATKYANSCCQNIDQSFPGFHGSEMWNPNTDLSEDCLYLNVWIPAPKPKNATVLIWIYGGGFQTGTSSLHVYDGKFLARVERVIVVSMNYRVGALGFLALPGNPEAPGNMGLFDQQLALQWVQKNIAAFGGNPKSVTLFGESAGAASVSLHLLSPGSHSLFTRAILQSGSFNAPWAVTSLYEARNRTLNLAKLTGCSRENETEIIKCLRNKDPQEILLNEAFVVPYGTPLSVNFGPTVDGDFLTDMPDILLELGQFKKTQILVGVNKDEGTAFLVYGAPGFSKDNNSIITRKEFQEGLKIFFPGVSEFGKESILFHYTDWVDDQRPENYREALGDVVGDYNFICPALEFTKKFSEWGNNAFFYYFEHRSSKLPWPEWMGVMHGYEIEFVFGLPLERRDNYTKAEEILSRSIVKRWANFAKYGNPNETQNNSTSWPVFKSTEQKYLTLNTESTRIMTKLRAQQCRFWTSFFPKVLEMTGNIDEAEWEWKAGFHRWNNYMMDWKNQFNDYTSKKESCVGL
# Chain of Acetylcholinesterase (P22303 whole entry): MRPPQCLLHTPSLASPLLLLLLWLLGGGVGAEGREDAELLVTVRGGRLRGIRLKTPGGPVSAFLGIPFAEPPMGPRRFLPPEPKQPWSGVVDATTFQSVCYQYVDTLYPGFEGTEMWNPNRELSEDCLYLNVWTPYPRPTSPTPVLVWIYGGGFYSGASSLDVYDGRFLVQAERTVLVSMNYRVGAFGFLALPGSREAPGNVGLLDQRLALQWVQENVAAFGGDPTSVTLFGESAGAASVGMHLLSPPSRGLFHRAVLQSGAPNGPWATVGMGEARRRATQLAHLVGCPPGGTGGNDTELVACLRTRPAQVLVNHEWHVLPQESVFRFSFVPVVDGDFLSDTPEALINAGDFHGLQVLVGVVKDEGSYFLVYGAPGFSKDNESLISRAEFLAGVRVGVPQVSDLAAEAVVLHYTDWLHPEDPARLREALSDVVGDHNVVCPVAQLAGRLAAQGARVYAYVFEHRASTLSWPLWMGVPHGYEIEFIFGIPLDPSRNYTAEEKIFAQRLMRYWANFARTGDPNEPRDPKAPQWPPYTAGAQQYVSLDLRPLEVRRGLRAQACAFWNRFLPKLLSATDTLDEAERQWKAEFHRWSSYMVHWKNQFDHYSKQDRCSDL
Compound,IC50 (Cholinesterase),IC50 (Acetylcholinesterase),pKb [1],Ki (Acetylcholinesterase)
CC[N+](C)(CCCCCC(=O)N1CCC(CCC2CCN(C(=O)CCCCC[N+](C)(CC)Cc3ccccc3OC)CC2)CC1)Cc1ccccc1OC (stereo not given),1860 nM,5.75 nM,–,–
CCN(CCCCCCNc1ccc(CCc2ccc(NCCCCCCN(CC)Cc3ccccc3OC)cc2)cc1)Cc1ccccc1OC,95500 nM,30900 nM,–,–
CCN(CCCCCC(=O)N(C)CCCCCCCCN(C)C(=O)CCCCCN(CC)Cc1ccccc1OC)Cc1ccccc1OC,–,–,5.65,–
CCN(CCCCCC(=O)N1CCC(CC2CCN(C(=O)CCCCCN(CC)Cc3ccccc3OC)CC2)CC1)Cc1ccccc1OC,6460 nM,3.31 nM,–,–
COc1ccccc1CN(C)CCCCCC(=O)N(C)CCCCCCCCN(C)C(=O)CCCCCN(C)Cc1ccccc1OC,–,–,6.39,–
CC[N+](C)(CCCCCC(=O)Nc1ccc(CCc2ccc(NC(=O)CCCCC[N+](C)(CC)Cc3ccccc3OC)cc2)cc1)Cc1ccccc1OC (stereo not given),1100 nM,120 nM,–,–
CCN(CCCCCC(=O)N1CCC(CCC2CCN(C(=O)CCCCCN(CC)Cc3ccccc3OC)CC2)CC1)Cc1ccccc1OC,3630 nM,7.41 nM,–,–
CCN(CCCCCC(=O)Nc1ccc(-c2ccc(NC(=O)CCCCCN(CC)Cc3ccccc3OC)cc2)cc1)Cc1ccccc1OC,1860 nM,36.3 nM,–,–
CCN(CCCCCC(=O)Nc1ccc(Cc2ccc(NC(=O)CCCCCN(CC)Cc3ccccc3OC)cc2)cc1)Cc1ccccc1OC,1820 nM,63.1 nM,–,–
CC[N+](C)(CCCCCC(=O)N1CCC(CCCC2CCN(C(=O)CCCCC[N+](C)(CC)Cc3ccccc3OC)CC2)CC1)Cc1ccccc1OC (stereo not given),661 nM,5.75 nM,–,–
CCN(CCCCCCNc1ccc(-c2ccc(NCCCCCCN(CC)Cc3ccccc3OC)cc2)cc1)Cc1ccccc1OC,15500 nM,2630 nM,–,–
CCN(CCCCCCNc1ccc(Cc2ccc(NCCCCCCN(CC)Cc3ccccc3OC)cc2)cc1)Cc1ccccc1OC,1620 nM,1070 nM,–,–
CCN(CCCCCC(=O)Nc1ccc(CCc2ccc(NC(=O)CCCCCN(CC)Cc3ccccc3OC)cc2)cc1)Cc1ccccc1OC,1700 nM,170 nM,–,–
CCN(CCCCCC(=O)N1CCC(CCCC2CCN(C(=O)CCCCCN(CC)Cc3ccccc3OC)CC2)CC1)Cc1ccccc1OC,3390 nM,6.61 nM,–,–
CCN(CCCCCC(=O)N1CCC(C2CCN(C(=O)CCCCCN(CC)Cc3ccccc3OC)CC2)CC1)Cc1ccccc1OC,8510 nM,3.31 nM,6.18,5.67 nM

# — ChEMBL document CHEMBL1149275, “Structure-activity relationships of acetylcholinesterase noncovalent inhibitors based on a polyamine backbone. 3. Effect of replacing the inner polymethylene chain with cyclic moieties” (J Med Chem, 2004)
